Consider three molecules from patent US20260335278A1, “PHYTOCHEMICAL FORMULATIONS FOR TREATING STRESS AND ANXIETY” (GBS GLOBAL BIOPHARMA, INC., priority 2022, published 2026).

“Also recorded” adds a separate entry of the source.

In one series the test system is MAO-A. The settings on record: cited from earlier work.
The subject of series [1] is zebrafish larvae. Put plainly: Baseline activity / baseline exposure (90 min continuous light), zebrafish larvae. In kind it is in vivo. Also on record: key to Baseline Exposure: +: statistically significant increase; −−: statistically significant decrease. How it is done: (§1) The validation process for the phytochemicals derived from Piper methysticum, other Piper plant family members, and non-Piper medicinal plants and fungi includes testing the selected phytochemical drug candidates as singles, doubles, and triples in two complementary zebrafish models of stress and anxiety. These two complementary assays are the Light/Dark Stress Response test that is illustrated in FIG. 5 (after the 90 min study of the effect of the compounds and mixtures on Baseline Activity) and the Thigmotaxis assay, as illustrated in FIG. 61A and FIG. 61B, which is also known as the wall flower effect, like the social anxiety of humans. Zebrafish larvae show a clear and distinct pattern of swimming in response to rapidly alternating light and dark conditions in the Light/Dark Response testing, which trigger a flight or fight response and darting behavior indicative of great stress and anxiety. The Light/Dark testing uses a control group to automatically track, using an automatic tracking device, the larval behavior in response to dark to light conditions. The thigmotaxis assay also uses automatic tracking and appropriate controls. In multiple embodiments additional Zebrafish larvae are given various concentrations of the selected phytochemicals from Table 1 for tracking Light/Dark Responses or Thigmotactic behavioral changes in the treated zebrafish larvae. Table 2A and Table 2B summarize the results from both assays when the individual phytochemicals are exposed to the: Baseline Activity (90 minutes in the light), Light/Dark Stress Response (5 min alternating pulses of dark and light for 30 min.), and Thigmotaxis Activity (% of time in the light center of the chamber (anxiety inducing) versus % of time near the dark (soothing) wall).
(§2) The present invention includes a process to discover new pharmaceutical medicines for the treatment of stress, anxiety and anxiety-related disorders in a human. The preclinical testing included the effects of these 14 individual phytochemicals and 300 ratio-controlled mixtures of these phytochemicals in assays measuring the behavioral stress response patterns of zebrafish larvae. Larval behavior is assessed with at least one functional assay of stress or anxiety following acute exposure to each phytochemical sample formulated. Stereotypical basal activity patterns of zebrafish will be assessed to determine the potential side effects of the phytochemical samples in a concentration dependent manner for each compound on two zebrafish models of stress and anxiety: 1) the Light/Dark Stress Response (5 min alternating pulses of light and dark) in small to med well plates (96-48 well plates), and 2) Thigmotaxis assays in large well plates with 50% of the swimming surface colored dark around the margins of the well in large (24-12 well plates) will be assessed for their efficacy in testing the phytochemicals.
(§3) The discovery methods of the present invention include testing the effects of up to 20 phytochemicals and 40 mixtures of the phytochemicals on behavioral stress response patterns of zebrafish larvae. Larval behavior was assessed with an automated video tracking system following acute exposure to each phytochemical sample. Stereotypical basal activity patterns of larvae were assessed to determine the concentration dependent effect of each compound. A zebrafish model of thigmotaxis in large well plates (24-12 well plates) was assessed for their efficacy in testing the phytochemicals. In the discovery method, fertilized eggs were kept on a re-circulating system in baskets until use at 120 hpf (5 days). At 120 hpf, larvae were loaded into 48 well plates in buffered fish media and acclimated to the plate in a heated light incubator for 2 hours. Larvae were acutely exposed with drug or controls at a 10× concentration and the plate was quickly transferred to a behavioral tracking system. Acute behavioral run was 90 minutes (baseline activity) in the light followed by alternating 5 minute bins (total 2 hours). […]

In series [2] the test system is zebrafish larvae. Kind of series: Zebrafish models of stress and anxiety, overall verdict (Light/Dark Stress Response and thigmotaxis). In kind it is in vivo. Conditions: for Anti-Anxiety Potential?: API used singly. How it is done:
as §1
Additionally, testing is done with mixtures of these same selected phytochemicals from P. methysticum and other plants selected by our in silico analyses. The testing results are analyzed using artificial intelligence systems to rank effectiveness in reducing the Light/Dark response and thigmotactic behavior for the
The A1 enabled drug discovery platform database search data was evaluated to select the best drug candidates from: A Piper methysticum, B. within the Piper plant family (>200 Piper spp.), or C. traditional medicines to begin testing […] (API) singles, doubles, and triples in two complementary zebrafish models of anxiety light/dark startle response testing and thigmotaxis assays.
as §2
The discovery methods of the present invention include testing the effects of up to 20 phytochemicals and 40 mixtures of the phytochemicals on behavioral stress response patterns of zebrafish larvae. Larval behavior was assessed with an automated video tracking system following acute exposure to each phytochemical sample. […]

Series [3] deals with zebrafish larvae. Put plainly: Thigmotaxis assay. The series is classed as in vivo. Further details: key: +: statistically significant increase; −−: statistically significant decrease. As for the experimental part:
as §1, §2, §3

In series [4] the test system is zebrafish larvae. Kind of series: Light/Dark Stress Response (5 min alternating pulses of dark and light for 30 min). In kind it is in vivo. Further details: key to Light/Dark Stress Response: +: statistically significant increase; −−: statistically significant decrease. How it is done: as §1, §2, §3
The test system of a further series is MAO-B. The settings on record: cited from earlier work.
A short description of series [5]: Pharmacokinetics of piperine acting alone. The series is classed as in vivo.

Consider `COC1=CC(=O)O[C@@H](CCc2ccc3c(c2)OCO3)C1` [(+)-dihydro methysticin], for which, in the series with MAO-A, the “Approx. Dose (cell or animal experiments), MAO-A” value is “MAO-A 23.2 μM,”. Further, the “Baseline Exposure” value in the series on zebrafish larvae [1] (High) is recorded as “−−”; in the series on zebrafish larvae [1] (Low) it was “+”; in the series on zebrafish larvae [1] (Med), “−−”. The “baseline Activity (90 min light)” value with zebrafish larvae [1] (vehicle 0.5% MeOH, listed as Dihydromysticin) is “baseline activity is close to controls; also recorded: (slight increase initially)”; with zebrafish larvae [1] (vehicle 1% MeOH, listed as Dihydromysticin), “baseline activity levels reduced; also recorded: (evidence of sedation)”. The “Anti-Anxiety Potential?” value in the series on zebrafish larvae [2] is “Yes”. For the same molecule, the “Therapeutic Potential” value in the series on zebrafish larvae [2] (vehicle 0.5% MeOH) is reported as “Yes”. Also, the “Thigmotaxis Model” value in the series on zebrafish larvae [3] (High) and in the series with zebrafish larvae [3] (Med) was “−−” each time. Further, the “Light/Dark Stress Response (5 min light/dark pulses)” value was “stress response is reduced” in the series with zebrafish larvae [4] (vehicle 0.5% MeOH) and “stress response is reduced, but evidence” in the series on zebrafish larvae [4] (vehicle 1% MeOH). For the same molecule, in the series with MAO-B, the “Approx. Dose (cell or animal experiments), MAO-B” value is “MAO-B 0.855 μM”.
Consider `O=C(/C=C/C=C/c1ccc2c(c1)OCO2)N1CCCCC1` [piperine], for which the “Baseline Exposure” value in the series with zebrafish larvae [1] (High) was “+”; with zebrafish larvae [1] (Low) it was “−−”. For the same molecule, in the series on zebrafish larvae [1] (acting alone), the “effect on the baseline activity” value was “virtually no effect on the baseline activity”. In addition, the “Anti-Anxiety Potential?” value in the series with zebrafish larvae [2] is reported as “Yes”. Further, the “Therapeutic Potential” value in the series on zebrafish larvae [2] (vehicle 1% MeOH) is “YES-top pick”. The “Thigmotaxis Model” value in the series with zebrafish larvae [3] (High) is reported as “−−”. Besides, the “Light/Dark Stress Response” value with zebrafish larvae [4] (High) and in the series with zebrafish larvae [4] (Med) was “−−” in each case. The “Light/Dark Stress Response (5 min light/dark pulses)” value in the series with zebrafish larvae [4] (vehicle 1% MeOH) is on record as “stress response is reduced”. Also, the pharmacokinetics entry in series [5] is recorded as “positive results”.
Turning to `COc1ccc(/C=C/c2cc(OC)cc(=O)o2)cc1` [yangonin], in the series with MAO-A, the “Approx. Dose (cell or animal experiments), MAO-A” value is “MAO-A1.29 μM,”. The “Baseline Exposure” value in the series with zebrafish larvae [1] (High), with zebrafish larvae [1] (Low) and in the series with zebrafish larvae [1] (Med) was “+” in each case. Further, the “baseline Activity (90 min light)” value with zebrafish larvae [1] (vehicle 0.5% MeOH) and with zebrafish larvae [1] (vehicle 1% MeOH) was “baseline activity is close to controls; also recorded: (slight increase initially)” in each case. The “Anti-Anxiety Potential?” value in the series on zebrafish larvae [2] is reported as “Yes”. In addition, the “Therapeutic Potential” value in the series on zebrafish larvae [2] (vehicle 0.5% MeOH) and in the series on zebrafish larvae [2] (vehicle 1% MeOH) was “Yes” in each case. Also, the “Thigmotaxis Model” value in the series on zebrafish larvae [3] (High) and in the series with zebrafish larvae [3] (Med) was “−−” throughout. In addition, the “Light/Dark Stress Response” value in the series with zebrafish larvae [4] (High) was “−−”. For the same molecule, the “Light/Dark Stress Response (5 min light/dark pulses)” value with zebrafish larvae [4] (vehicle 0.5% MeOH) and in the series on zebrafish larvae [4] (vehicle 1% MeOH) was “stress response is reduced” in each case. Also, the “Approx. Dose (cell or animal experiments), MAO-B” value in the series on MAO-B is given as “MAO-B 0.085 μM”.
